In patent US20060142323A1, “Dual binding site acetylcholinesterase inhibitors for the treatment of alzheimer's disease” (priority 2002, published 2006):

What was measured:
[1] = target: T1, AChE from bovine erythrocytes (Bos taurus, UniProt P23795); experiment: AChE inhibition (from bovine erythrocytes), Ellman method at 25° C., Fluostar reader; type: biochemical; settings: 0.5 mM acetylthiocholine iodide, pH 8, 10 min preincubation
T1 construct: 0.02 units AChE (Sigma Chemical Co. from bovine erythrocytes); purchased Sigma Chemical Co; host or cells: bovine erythrocytes
T1 sequence (P23795 31-614 isoform P23795-2 limits assumed): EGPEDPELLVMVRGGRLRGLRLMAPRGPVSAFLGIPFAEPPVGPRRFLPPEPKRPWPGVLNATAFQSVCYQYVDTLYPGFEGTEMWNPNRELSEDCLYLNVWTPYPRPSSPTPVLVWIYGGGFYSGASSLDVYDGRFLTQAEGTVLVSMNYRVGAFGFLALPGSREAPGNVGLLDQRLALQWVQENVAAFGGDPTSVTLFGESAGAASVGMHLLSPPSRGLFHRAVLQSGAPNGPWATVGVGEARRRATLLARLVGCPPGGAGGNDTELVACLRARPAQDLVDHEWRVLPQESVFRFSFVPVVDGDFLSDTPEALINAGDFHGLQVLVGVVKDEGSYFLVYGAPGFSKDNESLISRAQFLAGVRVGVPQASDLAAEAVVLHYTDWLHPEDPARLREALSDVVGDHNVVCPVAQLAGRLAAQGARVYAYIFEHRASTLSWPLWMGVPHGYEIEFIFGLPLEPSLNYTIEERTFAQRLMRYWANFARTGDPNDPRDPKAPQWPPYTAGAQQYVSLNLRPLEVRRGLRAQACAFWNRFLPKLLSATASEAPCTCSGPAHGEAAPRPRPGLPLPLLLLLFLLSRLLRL
Experimental: AChE Inhibition (from Bovine Erythocytes)
AChE inhibitory activity was evaluated at 25° C. by the colorimetric method reported by Ellman (Ellman, G. L.; Courtney, K. D.; Andres, B.; Featherstone, R. M. Biochem. Pharmacol. 1961, 7, 88-95). The assay solution consisted on 0.02 unit/ml AChE from bovine erythrocytes, 0.1 M sodium phosphate buffer pH 8, 0.3 mM 5,5′-dithiobis (2-nitrobenzoic […]), and 0.5 mM acetylthiocholine iodide as the substrate of the enzymatic reaction. Enzyme activity was determined by measuring the absorbance at 405 nm during 10 minutes with a Fluostar optima plate reader (BMG). The tested compounds were preincubated with the enzyme for 10 minutes at 30° C.

[2] = target: T1, AChE from bovine erythrocytes; experiment: Acetylcholinesterase (AChE) inhibition (from bovine erythrocytes), Ellman method at 30° C., Digiscan 340T; type: biochemical; settings: bovine erythrocytes AChE, 30° C., 5 min preincubation; read-out: IC50 AchE
Experimental: Acetylcholinesterase (AChE) Inhibition (from Bovine Erythrocytes)
AChE inhibitory activity was evaluated at 30° C. by the colorimetric method reported by Ellman [Ellman, G. L.; Courtney, K. D.; Andres, B.; Featherstone, R. M. Biochem. Pharmacol. 1961, 7, 88-95]. The assay solution consisted of 0.1 M phosphate buffer pH 8, 0.3 mM 5,5′-dithiobis (2-nitrobenzoic acid) (DTNB, Ellman's reagent), 0.02 units AChE (Sigma Chemical Co. from bovine erythrocytes), and 0.5 mM acetylthiocholine iodide as the substrate of the enzymatic reaction. The compounds tested were added to the assay solution and preincubated with the enzyme for 5 min at 30° C. After that period, the substrate was added. The absorbance changes at 405 nm were recorded for 5 min with a microplate reader Digiscan 340T, the reaction rates were compared, and the percent inhibition due to the presence of test compounds was calculated. The reaction rate was calculated with, at least, triplicate measurements, and the percent inhibition due to the presence of test compound was calculated relative to the compound-free control.

[3] = target: T2, BuChE from human serum (Homo sapiens, UniProt P06276); experiment: Butyrylcholinesterase (BuChE) inhibition (from human serum); type: biochemical; settings: human serum BuChE, 30° C., 10 min preincubation; read-out: IC50 BuChE
T2 construct: The assay solution consisted of 0.01 units BuChE from human serum; from tissue; host or cells: human serum
Experimental: Butyrylcholinetersae (BuChE) Inhibition (from Human Serum)
BuChE inhibitory activity was evaluated at 30° C. by the colorimetric method reported by Ellman (Ellman, G. L.; Courtney, K. D.; Andres, B.; Featherstone, R. M. Biochem. Pharmacol. 1961, 7, 88-95]. The assay solution consisted of 0.01 units BuChE from human serum, 0.1 M sodium phosphate buffer pH 8, 0.3 mM 5,5′-dithiobis (2-nitrobenzoic acid) (DTNB, Ellman's reagent), and 0.5 mM butylthiocholine iodide as the substrate of the enzymatic reaction. Enzyme activity was determined by measuring the absorbance at 405 nm during 5 minutes with a microplate reader Digiscan 340T. The tested compounds were preincubated with the enzyme for 10 minutes at 30° C. The reaction rate was calculated with, at least, triplicate measurements.

[4] = test system: human neuroblastoma cell line SH—SY5Y; experiment: Toxicity measurement (LDH) in SH-SY5Y cells; type: cell-based; settings: 24 hours exposure
Experimental: The cytotoxicity effect of the molecules was tested in the human neuroblastoma cell line SH—SY5Y. These cells were cultured in 96-well plates in minimum essential medium, Han's F12 medium, supplemented with 10% fetal bovine serum, 1% glutamine and 1% penicillin/streptomycin, and grown in. a 5% CO2 humidified incubator at 37° C.
The cells were plated at 10^4 cells for each well, at least, 48 hours before the toxicity measure. Cells were exposed for 24 hours to the compounds at different concentrations (from 10^−5 to 10^−9), quantitative assessment of cell death was made by measurement of the intracellular enzyme lactate dehydrogenase (LDH) (citotoxicity detection kit, Roche). The cuantity of LDH was evaluated in a microplate reader Anthos 2010, at 492 and 620 nm. Controls were taken as 100% viability.

[5] = target: AChE peripheral site (Homo sapiens, UniProt P22303); experiment: Propidium competition (fluorescence); type: binding; settings: 20 μM propidium iodide, AChE incubated at least 6 hours with compound
Experimental: Fluorescence was measured in a Fluostar optima plate reader (BMG). Measurements were carried out in 100 μl solution volume, in 96-well plates. The buffer used was 1 mM Tris/HCl, pH 8.0. […] AChE was incubated, at least 6 hours, with the molecules at different concentrations. 20 μM propidium iodide was added 10 min before fluorescence measurement.

[6] = target: T3, AChE from human erythrocytes (Homo sapiens, UniProt P22303); experiment: AChE inhibition (from human erythrocytes), Ellman method; type: biochemical; settings: 10 min preincubation at 30° C., 400 μM acetylthiocholine iodide, pH 8
T3 construct: 0.02 unit/ml AChE (Sigma Chemical Co. from human erythrocytes); purchased Sigma Chemical Co; host or cells: human erythrocytes
Experimental: AChE Inhibition (from Human Erythrocytes)
The method of Ellman et al. (Ellman, G. L.; Courtney, K. D.; Andres, B.; Featherstone, R. M. Biochem. Pharmacol. 1961, 7, 88-95) was followed. The assay solution consisted of 0.1 M phosphate buffer pH 8, 200 μM 5,5′-dithiobis(2-nitrobenzoic acid) (DTNB, Ellan's reagent), 0.02 unit/ml AChE (Sigma Chemical Co. from human erythrocytes), and 400 μM acetylthiocholine iodide as the substrate of the enzymatic reaction. The compounds tested were added to the assay solution and pre incubated with the enzyme for 10 min at 30° C. After that period, the substrate was added. The absorbance changes at 412 nm were recorded for 5 min with a Perkin-Elmer 550 SE UV/VIS spectrometer, the reaction rates were compared, and the percent inhibition due to the presence of test compounds was calculated.

[7] = target: T4, AChE from N2A cells (Mus musculus, UniProt P21836); experiment: Neuronal AChE activity, enzyme preparation from N2A cells; type: biochemical; settings: pH 8, 0.5 mM acetylthiocholine iodide, read-out: IC50 AChE N2A (rat neuroblastoma)
T4 construct: The assay solution consisted of AChE from neuronal cells; endogenous in cells; host or cells: N2A neuroblastoma cells
T4 sequence (P21836 32-614): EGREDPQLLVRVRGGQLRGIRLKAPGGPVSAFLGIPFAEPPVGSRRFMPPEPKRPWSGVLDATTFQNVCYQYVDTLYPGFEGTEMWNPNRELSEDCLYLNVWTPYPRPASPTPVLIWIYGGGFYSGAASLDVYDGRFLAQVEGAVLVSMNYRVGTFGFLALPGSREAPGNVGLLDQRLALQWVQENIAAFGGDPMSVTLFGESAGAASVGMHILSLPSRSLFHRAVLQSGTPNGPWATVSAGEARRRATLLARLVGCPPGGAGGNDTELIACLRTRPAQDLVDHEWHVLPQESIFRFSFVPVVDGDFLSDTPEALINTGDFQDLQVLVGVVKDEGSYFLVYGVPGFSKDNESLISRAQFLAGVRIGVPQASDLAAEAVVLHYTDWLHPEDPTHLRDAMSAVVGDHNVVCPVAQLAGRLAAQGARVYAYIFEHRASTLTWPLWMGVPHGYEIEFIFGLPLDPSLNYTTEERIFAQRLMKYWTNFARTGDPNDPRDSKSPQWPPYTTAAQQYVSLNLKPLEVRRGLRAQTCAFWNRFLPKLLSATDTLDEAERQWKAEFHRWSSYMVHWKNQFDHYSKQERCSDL
Experimental: (§1) Acetylcholinesterase (AChE) enzyme preparations were obtained from SH—SY5Y, SK—N—SH and N2A cells.
(§2) CELL CULTURE: The human neuroblastoma cell line SH—SY5Y was cultured in minimum essential medium, Han's F12 medium, supplemented with 10% fetal bovine serum and 1% penicillin/streptomycin, and grown in a 5% CO2 humidified incubator at 37° C. […] The rat neuroblastoma cell line N2A was cultured in DULBECCO'S MOD EAGLE medium, supplemented with 10% fetal bovine serum and 1% penicillin/streptomycin, and grown in a 5% CO2 humidified incubator at 37° C. The cells were plated at 250 10^3 cells for each reaction, at least, 48 hours before the AChE activity measure. Cells were washed and harvested in 0.1 M sodium phosphate buffer pH 8, at 4° C.
(§3) The assay solution consisted of AChE from neuronal cells, 0.1 M phosphate buffer pH 8, 0.3 mM 5,5′-dithiobis (2-nitrobenzoic acid) (DTNB, Ellman-s reagent), and 0.5 mM acetylthiocholine iodide as the substrate of the enzymatic reaction. […] The reaction rate was calculated with, at least, triplicate measurements, and the percent inhibition due to the presence of test compound was calculated relative to the compound-free control.

[8] = target: T5, AChE from SK—N—SH cells (Homo sapiens, UniProt P22303); experiment: Neuronal AChE activity, enzyme preparation from SK-N-SH cells; type: biochemical
T5 construct: The assay solution consisted of AChE from neuronal cells; endogenous in cells; host or cells: SK-N-SH human neuroblastoma cells
Experimental: as §1, §2, §3

[9] = target: T6, AChE from SH—SY5Y cells (Homo sapiens, UniProt P22303); experiment: Neuronal AChE activity, enzyme preparation from SH-SY5Y cells; type: biochemical; settings: pH 8, 0.5 mM acetylthiocholine iodide, read-out: IC50 AChE SH-SY5Y (human neuroblastoma)
T6 construct: The assay solution consisted of AChE from neuronal cells; endogenous in cells; host or cells: SH-SY5Y human neuroblastoma cells
Experimental: as §1, §2, §3

[10] = target: T7, β-amyloid-AChE complex (Homo sapiens, UniProt P22303); experiment: Inhibition of β-amyloid aggregation (AChE-Aβ complex, Congo Red binding); type: biochemical; settings: compound at its AChE IC50, Aβ1-40 0.1 mM, Aβ-AChE 200:1, 48 hours
T7 construct: purchased Sigma-Aldrich
Experimental: Inhibition of β-Amyloid Aggregation:
Stock solutions of Aβ1-40 at 3.5 mM were prepared in DMSO. The amount of peptide used in the assays was 0.1 mM. Human recombinant AChE (Sigma-Aldrich) was used at a molar ratio Aβ-AChE 200:1. For the aggregation studies the peptide was mixed with the appropriate amount of AChE in PBS pH 7.4 and stirred for 48 hours in -a microtiter plate at room temperature. The fibrils obtained were characterized by Congo Red (CR) binding.
For the inhibition of β-amyloid aggregation, the compounds tested were used at the IC50 defined in the previous paragraph of the biological evaluation. Propidium iodide 50 μM for comparison.

[11] = test system: calcium channels in SH—SY5Y cells; experiment: Effects on calcium channels (K+ stimulated calcium entry, Fluo-4); type: cell-based, human; settings: 60 mM K+, 10 min preincubation
Experimental: Effects on Calcium Channels
We have studied if these compounds are able to block calcium channels. Calcium entry in SH—SY5Y cells was stimulated with 60 mM K^+ in 96-well plates. Cells were plated at 5·10^4 for each well, at least, 48 hours before the experiment. For measurement of intracellular calcium, SH—SY5Y were washed with Krebs/HEPES buffer, pH 7.4. and cells were loaded with the calcium indicator dye Fluo-4 (Molecular Probes) for 40 min at 37° C. followed by 15 min post incubation at room temperature. Intracellular calcium was measured fluorometrically in a Fluostar optima plate reader (BMG), with excitation wavelengths set at 485 nm and emission at 520 nm. The tested compounds were preincubated with the cells for 10 minutes before the depolarization with K^+.

[12] = test system: SH—SY5Y cells exposed to β-amyloid fragment 25-35; experiment: Effects on β-amyloid toxicity (fragment 25-35, LDH viability); type: cell-based, human; settings: 1 hour pretreatment, Aβ 25-35 at 200 μM, 24 hours
Experimental: Effects on β-Amiloid Toxicity
We have tested if some of these molecules interfere with amyloid peptide toxicity. Cells SH—SY5Y were cultured in 96-well plates as toxicity experiments. Cells were pretreated for 1 hour with the compounds at different concentrations (from 10^−5 to 10^−9), immediately neuronal death is induced adding synthetic peptide β-amyloid, fragment 25-35 (A25-35) at 200 μM. 24 hours later cell viability was assessed with the LDH assay; results are reported relative to untreated wells.

Sequence of AChE peripheral site (P22303 32-614): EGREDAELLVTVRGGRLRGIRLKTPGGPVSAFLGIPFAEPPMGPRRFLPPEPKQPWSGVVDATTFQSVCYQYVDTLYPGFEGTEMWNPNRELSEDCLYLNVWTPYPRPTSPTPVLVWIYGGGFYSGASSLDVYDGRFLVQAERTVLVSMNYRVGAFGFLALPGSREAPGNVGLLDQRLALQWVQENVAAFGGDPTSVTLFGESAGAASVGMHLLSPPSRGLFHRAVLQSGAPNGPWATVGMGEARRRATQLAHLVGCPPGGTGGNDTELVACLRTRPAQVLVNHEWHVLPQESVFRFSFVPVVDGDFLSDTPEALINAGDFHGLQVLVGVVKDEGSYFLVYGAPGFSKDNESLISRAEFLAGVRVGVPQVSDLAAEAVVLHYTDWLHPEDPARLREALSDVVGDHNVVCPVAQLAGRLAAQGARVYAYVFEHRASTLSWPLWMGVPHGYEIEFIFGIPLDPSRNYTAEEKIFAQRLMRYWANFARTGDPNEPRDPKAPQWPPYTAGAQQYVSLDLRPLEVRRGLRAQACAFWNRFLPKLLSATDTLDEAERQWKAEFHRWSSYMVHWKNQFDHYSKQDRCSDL
T2 sequence (P06276 29-602): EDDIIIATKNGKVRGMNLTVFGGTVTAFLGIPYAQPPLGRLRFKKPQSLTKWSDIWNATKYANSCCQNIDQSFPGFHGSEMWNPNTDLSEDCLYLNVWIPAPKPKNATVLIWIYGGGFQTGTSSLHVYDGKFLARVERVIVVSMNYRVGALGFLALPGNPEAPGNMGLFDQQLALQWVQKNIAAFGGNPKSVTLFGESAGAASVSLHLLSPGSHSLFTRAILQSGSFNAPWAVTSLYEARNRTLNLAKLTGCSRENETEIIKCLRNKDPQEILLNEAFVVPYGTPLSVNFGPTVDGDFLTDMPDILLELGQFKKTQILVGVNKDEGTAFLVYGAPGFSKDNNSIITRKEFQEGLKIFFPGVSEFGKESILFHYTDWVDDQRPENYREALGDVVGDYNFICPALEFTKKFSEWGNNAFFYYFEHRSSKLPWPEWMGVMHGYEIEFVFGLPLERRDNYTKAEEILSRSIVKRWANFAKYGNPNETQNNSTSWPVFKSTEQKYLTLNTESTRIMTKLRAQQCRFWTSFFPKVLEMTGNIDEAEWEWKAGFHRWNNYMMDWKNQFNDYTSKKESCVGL
T5 sequence (P22303 32-614): as the sequence (P22303 32-614) above
T6 sequence (P22303 32-614): as above
T7 sequence (P22303 32-614, one chain of several): as the sequence (P22303 32-614) above
T3 sequence (P22303 32-617 isoform P22303-2 limits assumed): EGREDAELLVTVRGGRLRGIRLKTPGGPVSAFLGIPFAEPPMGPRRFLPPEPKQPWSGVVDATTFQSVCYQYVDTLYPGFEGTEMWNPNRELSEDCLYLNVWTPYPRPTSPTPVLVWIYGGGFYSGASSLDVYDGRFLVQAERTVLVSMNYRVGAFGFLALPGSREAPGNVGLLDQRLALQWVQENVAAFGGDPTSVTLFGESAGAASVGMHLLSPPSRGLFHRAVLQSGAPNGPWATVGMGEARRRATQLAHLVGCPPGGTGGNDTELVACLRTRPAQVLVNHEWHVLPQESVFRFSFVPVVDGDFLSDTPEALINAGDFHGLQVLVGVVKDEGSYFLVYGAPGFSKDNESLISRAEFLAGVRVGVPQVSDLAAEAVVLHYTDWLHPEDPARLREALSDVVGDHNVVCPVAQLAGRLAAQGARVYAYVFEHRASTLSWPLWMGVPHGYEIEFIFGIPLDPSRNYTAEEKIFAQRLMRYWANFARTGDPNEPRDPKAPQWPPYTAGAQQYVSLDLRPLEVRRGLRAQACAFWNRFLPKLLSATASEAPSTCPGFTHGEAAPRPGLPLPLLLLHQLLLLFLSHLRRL

SMILES	IC50 [1]	IC50 [2]	IC50 [3]	Toxicity [4]	Propidium competition [5]	IC50 [6]	IC50 [7]	IC50 [8]	IC50 [9]	reduction of the β-amyloid-AChE complex aggregation [10]	Calcium channel blockade [11]	inhibition of Aβ(25-35) toxicity [12]
CCCn1s/c(=N\CCCCCCCNc2c3c(nc4ccccc24)CCCC3)n(CC)c1=O [Compound 16, 4-Ethyl-2-propyl-5-[7-(1,2,3,4-tetrahydro-acridin-9-ylamino)-heptyl-imino]-[1,2,4]thiadiazolidin-3-one]	203 nM	450 nM	20 nM	50 µM	>100 µM							
COc1cc2c(cc1OC)C(=O)C(CNCCCCCCCNc1c3c(nc4ccccc14)CCCC3)C2 (stereo not shown) [Compound 1, 5,6-Dimethoxy-2-{[7-(1,2,3,4-tetrahydro-acridin-9-ylamino)-heptylamino]-methyl}-indan-1-one]						25 nM	209 nM	109 nM	4350 nM	18.7%		
O=C1c2ccccc2C(=O)N1CCCCCCCNc1c2ccccc2nc2ccccc12 [Compound 7, 2-[7-(Acridin-9-ylamino)-heptyl]-isoindole-1,3-dione]		1500 nM	700 nM	>100 µM	100 µM						10 µM	1 µM
